Test results published in patent US11661426B2, “Imidazole-containing inhibitors of ALK2 kinase” (BioCryst Pharmaceuticals, Inc., priority 2017, dated 2023).

Biological target: ALK2 (Homo sapiens (Human), UniProt Q04771)
Experiment: ALK2 inhibition, LanthaScreen Eu Kinase Binding Assay (ThermoFisher Scientific / Life Technologies)
Conditions: read-out: Measured Ki (IC50) Value for Compounds: IC50
Protocol: Biochemical assays to measure the inhibitory effects of the compounds were performed by ThermoFisher Scientific (Life Technologies). ALK2 inhibition was tested using LanthaScreen™ Eu Kinase Binding Assay screening protocol.

Sequence of ALK2 (Q04771 21-509): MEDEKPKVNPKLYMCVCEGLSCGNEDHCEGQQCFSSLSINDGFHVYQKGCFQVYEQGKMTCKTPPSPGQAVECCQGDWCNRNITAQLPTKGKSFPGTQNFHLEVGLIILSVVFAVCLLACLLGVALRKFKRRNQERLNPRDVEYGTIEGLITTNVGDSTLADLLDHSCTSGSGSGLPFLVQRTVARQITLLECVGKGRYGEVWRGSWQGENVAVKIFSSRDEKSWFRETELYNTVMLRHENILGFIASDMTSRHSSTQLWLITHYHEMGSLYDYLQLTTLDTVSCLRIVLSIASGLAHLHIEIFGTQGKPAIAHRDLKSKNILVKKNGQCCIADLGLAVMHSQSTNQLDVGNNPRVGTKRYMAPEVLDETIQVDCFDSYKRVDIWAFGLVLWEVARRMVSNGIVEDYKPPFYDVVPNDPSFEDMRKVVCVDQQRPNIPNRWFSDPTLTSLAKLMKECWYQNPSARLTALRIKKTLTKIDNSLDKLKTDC

SMILES | IC50 [nM]
COc1cc(-n2cnc(Nc3nc(N4CCC[C@H]4CO)nc4cc(OC(C)C)ccc34)c2)cc(OC)c1OC [Compound 145h, (S)-(1-(7-isopropoxy-4-((1-(3,4,5-trimethoxyphenyl)-1H-imidazol-4-yl)amino)quinazolin-2-yl)pyrrolidin-2-yl)methanol] | < 100
OC[C@@H]1CCCN1c1nc(Nc2cn(-c3ccc(OC(F)(F)F)cc3)cn2)c2cccn2n1 [Compound 414d, (S)-(1-(4-((1-(4-(trifluoromethoxy)phenyl)-1H-imidazol-4-yl)amino)pyrrolo[2,1-f][1,2,4]triazin-2-yl)pyrrolidin-2-yl)methanol] | 100 to 1000
OC[C@@H]1CCCN1c1nc(Nc2cn(-c3ccncc3)cn2)c2cccn2n1 [Compound 421e, (S)-(1-(4-((1-(pyridin-4-yl)-1H-imidazol-4-yl)amino)pyrrolo[2,1-f][1,2,4]triazin-2-yl)pyrrolidin-2-yl)methanol] | < 100
COc1cc(-n2cnc(Nc3nc4c(c(N5CCC[C@H]5CO)n3)CCN(Cc3ccc(C#N)cc3)C4)c2)cc(OC)c1OC [Compound 219a, (S)-4-((4-(2-(hydroxymethyl)pyrrolidin-1-yl)-2-((1-(3,4,5-trimethoxyphenyl)-1H-imidazol-4-yl)amino)-5,6-dihydropyrido[3,4-d]pyrimidin-7(8H)-yl)methyl)benzonitrile] | < 100
c1ccc(C2CCCN2c2nc(Nc3cn(C4CCC4)cn3)c3cccn3n2)nc1 (stereo not drawn) [Compound 37c, N-(1-cyclobutyl-1H-imidazol-4-yl)-2-(2-(pyridin-2-yl)pyrrolidin-1-yl)pyrrolo[2,1-f][1,2,4]triazin-4-amine] | < 100
COc1cc(-n2cnc(Nc3cc(C(=O)N4CCC[C@@H](N)C4)cc4ccoc34)c2)cc(OC)c1OC [Compound 413b, (R)-(3-aminopiperidin-1-yl)(7-((1-(3,4,5-trimethoxyphenyl)-1H-imidazol-4-yl)amino)benzofuran-5-yl)methanone] | 100 to 1000
COc1cc(-n2cnc(Nc3nc(N4CCC[C@H]4CO)c4c(ccn4S(=O)(=O)c4ccc(C)cc4)n3)c2)cc(OC)c1OC [Compound 180b, (S)-(1-(5-tosyl-2-((1-(3,4,5-trimethoxyphenyl)-1H-imidazol-4-yl)amino)-5H-pyrrolo[3,2-d]pyrimidin-4-yl)pyrrolidin-2-yl)methanol] | < 100
COc1cc(-n2cnc(Nc3nc(N4CCC[C@H]4C(N)=O)nc4c3CCN(C(=O)OC(C)(C)C)C4)c2)cc(OC)c1OC [Compound 185a, (S)-tert-butyl 2-(2-carbamoylpyrrolidin-1-yl)-4-((1-(3,4,5-trimethoxyphenyl)-1H-imidazol-4-yl)amino)-5,6-dihydropyrido[3,4-d]pyrimidine-7(8H)-carboxylate] | < 100
COc1cc(-n2cnc(Nc3nc(N4CCC[C@H]4CO)nn4c(CNC(C)C)ccc34)c2)cc(OC)c1OC [Compound 129b, (S)-(1-(7-((isopropylamino)methyl)-4-((1-(3,4,5-trimethoxyphenyl)-1H-imidazol-4-yl)amino)pyrrolo[2,1-f][1,2,4]triazin-2-yl)pyrrolidin-2-yl)methanol] | < 100
COc1cc(-n2cnc(Nc3cc(C(=O)N4CCC[C@H]4C(N)=O)cc4ccoc34)c2)cc(OC)c1OC [Compound 411d, (S)-1-(7-((1-(3,4,5-trimethoxyphenyl)-1H-imidazol-4-yl)amino)benzofuran-5-carbonyl)pyrrolidine-2-carboxamide] | 100 to 1000
COc1cc(-n2cnc(Nc3nc(N4CCC[C@H]4CO)nc4[nH]ccc34)c2)cc(OC)c1OC [Compound 141d, (S)-(1-(4-((1-(3,4,5-trimethoxyphenyl)-1H-imidazol-4-yl)amino)-7H-pyrrolo[2,3-d]pyrimidin-2-yl)pyrrolidin-2-yl)methanol] | < 100
COc1cc(-n2cnc(Nc3nc(N4CCC[C@@H]4CO)nc4ccsc34)c2)cc(OC)c1OC [Compound 303a, (R)-(1-(4-((1-(3,4,5-trimethoxyphenyl)-1H-imidazol-4-yl)amino)thieno[3,2-d]pyrimidin-2-yl)pyrrolidin-2-yl)methanol] | < 100
